Results: ChEMBL document CHEMBL2380242, “Discovery of novel orally bioavailable GPR40 agonists” (Bioorg Med Chem Lett, 2013)
Each block holds one compound with its values, some of them ahead of it. Activity calls are given as the source filed them. The calls are words filed in the database; no cut-off is given here.

Legend:
Rhesus monkey [1] = experiment: Antidiabetic activity in obese type 2 diabetic rhesus monkey model assessed as inhibition of blood glucose excursion at 20 mg/kg, po administered 1 to 2 hrs prior to dextrose challenge measured for 60 mins by IVGTT relative to control; format: functional; conditions: Macaca mulatta
Rhesus monkey [2] = experiment: Antidiabetic activity in obese type 2 diabetic rhesus monkey model assessed as inhibition of blood glucose excursion at 20 mg/kg, po administered 1 to 2 hrs prior to dextrose challenge measured for 120 mins by IVGTT relative to control; format: functional; conditions: Macaca mulatta
Mus musculus [3] = experiment: Antidiabetic activity in high fat feasted ICR mouse assessed as reduction of blood glucose excursion at 20 mg/kg, po administered 15 mins prior to dextrose challenge measured for 120 mins by OGTT; format: functional, organism-based; set-up: dose 20 mg/kg
[4] = target: Free fatty acid receptor 1 (Rattus norvegicus, UniProt Q8K3T4); experiment: Agonist activity at GPR40 in rat INS-1 cells assessed as glucose-stimulated insulin secretion; format: cell-based, INS1
Free fatty acid receptor 1 (Rattus norvegicus, UniProt Q8K3T4), sequence (Q8K3T4 whole entry): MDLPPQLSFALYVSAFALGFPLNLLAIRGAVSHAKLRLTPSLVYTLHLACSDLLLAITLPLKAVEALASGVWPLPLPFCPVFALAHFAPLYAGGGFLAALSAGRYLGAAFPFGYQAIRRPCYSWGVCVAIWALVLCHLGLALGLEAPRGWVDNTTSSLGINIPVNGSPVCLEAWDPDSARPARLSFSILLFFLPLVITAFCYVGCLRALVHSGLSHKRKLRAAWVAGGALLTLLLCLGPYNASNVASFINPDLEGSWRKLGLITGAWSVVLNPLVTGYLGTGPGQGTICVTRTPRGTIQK

[5] = target: T1, Free fatty acid receptor 1 (Homo sapiens, UniProt O14842); experiment: Agonist activity at human GPR40 transfected in CHO cells by calcium flux assay relative to TAK-875; format: functional, cell-based
T1 sequence (O14842 whole entry): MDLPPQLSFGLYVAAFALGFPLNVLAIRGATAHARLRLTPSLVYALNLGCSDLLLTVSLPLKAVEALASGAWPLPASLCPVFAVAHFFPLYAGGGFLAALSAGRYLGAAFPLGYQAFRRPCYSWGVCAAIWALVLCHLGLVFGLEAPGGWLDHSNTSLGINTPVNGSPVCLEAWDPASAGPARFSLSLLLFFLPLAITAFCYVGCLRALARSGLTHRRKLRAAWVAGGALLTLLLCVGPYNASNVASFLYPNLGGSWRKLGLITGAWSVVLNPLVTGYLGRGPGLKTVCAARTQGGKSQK

Rattus norvegicus = experiment: Volume of distribution in rat at 5 mg/kg, po; format: ADME, organism-based; set-up: dose 5 mg/kg, route oral; conditions: in vivo
[6] = Inhibition of CYP450 (unknown origin); format: ADME, Homo sapiens
Rhesus monkey [7] = experiment: Antidiabetic activity in obese type 2 diabetic rhesus monkey model assessed as inhibition of blood glucose excursion at 6 mg/kg, po administered 1 to 2 hrs prior to dextrose challenge measured for 120 mins by IVGTT relative to control; format: functional; conditions: Macaca mulatta
[8] = Half life in beagle dog at 1 mg/kg, po; format: ADME, organism-based, Canis lupus familiaris; set-up: dose 1 mg/kg, route oral; conditions: in vivo
[9] = target: T2, Free fatty acid receptor 4 (Homo sapiens) (UniProt Q5NUL3); experiment: Agonist activity at GPR120 (unknown origin) up to 10 uM
T2 sequence (whole entry): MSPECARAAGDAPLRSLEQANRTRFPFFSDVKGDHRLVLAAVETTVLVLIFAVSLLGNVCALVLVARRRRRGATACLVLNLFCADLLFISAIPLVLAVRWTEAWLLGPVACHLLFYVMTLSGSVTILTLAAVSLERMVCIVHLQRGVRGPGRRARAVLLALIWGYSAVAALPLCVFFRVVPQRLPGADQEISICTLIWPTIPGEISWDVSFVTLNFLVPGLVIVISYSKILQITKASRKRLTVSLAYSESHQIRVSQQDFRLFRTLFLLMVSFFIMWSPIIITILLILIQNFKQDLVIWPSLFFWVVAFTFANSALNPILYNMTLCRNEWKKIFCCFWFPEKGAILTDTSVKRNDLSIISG

[10] = AUC in rat at 5 mg/kg, po; format: ADME, organism-based; set-up: dose 5 mg/kg, route oral; conditions: plasma
Mus musculus [11] = experiment: Antidiabetic activity in high fat feasted ICR mouse assessed as inhibition of blood glucose excursion at 50 mg/kg, po administered 15 mins prior to dextrose challenge measured for 120 mins by OGTT relative to control; format: functional
[12] = AUC in cynomolgus monkey at 6 mg/kg, po; format: ADME, organism-based, Macaca fascicularis; set-up: dose 6 mg/kg, route oral; conditions: plasma
[13] = target: T3, Free fatty acid receptor 3 (Homo sapiens) (UniProt O14843); experiment: Agonist activity at GPR41 (unknown origin) up to 10 uM
T3 sequence (whole entry): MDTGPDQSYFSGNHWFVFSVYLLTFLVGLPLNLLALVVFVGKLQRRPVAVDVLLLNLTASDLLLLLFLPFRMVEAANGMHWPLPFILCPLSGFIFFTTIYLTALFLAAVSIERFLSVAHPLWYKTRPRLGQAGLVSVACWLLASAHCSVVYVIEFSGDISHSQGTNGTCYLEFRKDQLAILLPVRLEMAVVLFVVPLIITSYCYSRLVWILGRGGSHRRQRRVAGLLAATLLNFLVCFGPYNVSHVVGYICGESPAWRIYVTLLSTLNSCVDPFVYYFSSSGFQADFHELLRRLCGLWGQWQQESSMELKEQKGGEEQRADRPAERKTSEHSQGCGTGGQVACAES

[14] = Lipophilicity, log D of the compound; format: physicochemical; conditions: octanol/water
[15] = Cmax in beagle dog at 1 mg/kg, po; format: ADME, organism-based, Canis lupus familiaris; set-up: dose 1 mg/kg, route oral; conditions: in vivo
[16] = Plasma clearance in beagle dog at 1 mg/kg, po; format: ADME, organism-based, Canis lupus familiaris; set-up: dose 1 mg/kg, route oral
Canis familiaris = experiment: Volume of distribution in beagle dog at 1 mg/kg, po; format: ADME, organism-based, Canis lupus familiaris; set-up: dose 1 mg/kg, route oral; conditions: in vivo
[17] = Cmax in rat at 5 mg/kg, po; format: ADME, organism-based; set-up: dose 5 mg/kg, route oral; conditions: in vivo
[18] = target: Free fatty acid receptor 1 (Rattus norvegicus) (UniProt Q8K3T4); experiment: Agonist activity at GPR40 in rat INS-1 cells assessed as glucose-stimulated insulin secretion relative to TAK-875; format: cell-based; conditions: INS1
Free fatty acid receptor 1 (Rattus norvegicus), sequence (Q8K3T4 whole entry): as the sequence (Q8K3T4 whole entry) above

[19] = target: T4, Free fatty acid receptor 2 (Homo sapiens) (UniProt O15552); experiment: Agonist activity at GPR43 (unknown origin) up to 10 uM
T4 sequence (whole entry): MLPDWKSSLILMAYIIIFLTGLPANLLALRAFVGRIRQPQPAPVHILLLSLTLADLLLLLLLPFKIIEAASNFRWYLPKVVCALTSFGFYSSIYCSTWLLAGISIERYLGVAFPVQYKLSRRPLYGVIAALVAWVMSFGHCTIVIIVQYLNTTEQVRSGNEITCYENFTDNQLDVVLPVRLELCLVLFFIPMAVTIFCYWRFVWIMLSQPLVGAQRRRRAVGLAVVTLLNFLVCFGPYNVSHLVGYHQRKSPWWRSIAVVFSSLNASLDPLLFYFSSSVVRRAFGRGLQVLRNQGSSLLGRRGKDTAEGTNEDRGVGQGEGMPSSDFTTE

[20] = Plasma clearance in rat at 5 mg/kg, po; format: ADME, organism-based; set-up: dose 5 mg/kg, route oral
[21] = Cmax in cynomolgus monkey at 6 mg/kg, po; format: ADME, organism-based, Macaca fascicularis; set-up: dose 6 mg/kg, route oral; conditions: in vivo
[22] = AUC in beagle dog at 1 mg/kg, po; format: ADME, organism-based, Canis lupus familiaris; set-up: dose 1 mg/kg, route oral; conditions: plasma
[23] = Half life in rat at 5 mg/kg, po; format: ADME, organism-based; set-up: dose 5 mg/kg, route oral; conditions: in vivo
[24] = Half life in cynomolgus monkey at 6 mg/kg, po; format: ADME, organism-based, Macaca fascicularis; set-up: dose 6 mg/kg, route oral; conditions: in vivo
[25] = target: T1, Free fatty acid receptor 1; experiment: Agonist activity at human GPR40 transfected in CHO cells by calcium flux assay; format: functional, cell-based
Rhesus monkey [26] = experiment: Antidiabetic activity in obese type 2 diabetic rhesus monkey model assessed as inhibition of blood glucose excursion at 6 mg/kg, po administered 1 to 2 hrs prior to dextrose challenge measured for 60 mins by IVGTT relative to control; format: functional; conditions: Macaca mulatta
Cynomolgus monkey = experiment: Volume of distribution in cynomolgus monkey at 6 mg/kg, po; format: ADME, organism-based, Macaca fascicularis; set-up: dose 6 mg/kg, route oral; conditions: in vivo
[27] = Plasma clearance in cynomolgus monkey at 6 mg/kg, po; format: ADME, organism-based, Macaca fascicularis; set-up: dose 6 mg/kg, route oral
Mus musculus [28] = experiment: Antidiabetic activity in high fat feasted ICR mouse assessed as reduction of blood glucose excursion at 50 mg/kg, po administered 15 mins prior to dextrose challenge measured for 120 mins by OGTT; format: functional, organism-based; set-up: dose 50 mg/kg
Mus musculus [29] = experiment: Antidiabetic activity in high fat feasted ICR mouse assessed as inhibition of blood glucose excursion administered 15 mins prior to dextrose challenge measured for 120 mins by OGTT relative to control; format: functional
[30] = Oral bioavailability in rat at 5 mg/kg; format: ADME, organism-based; conditions: in vivo

Structure (SMILES): Cc1cc(OCCCS(C)(=O)=O)cc(C)c1-c1cccc(COc2ccc3c(c2)OC[C@H]3CC(=O)O)c1
inhibition in vivo at 20 mg/kg (Rhesus monkey [1]): 14.7%
inhibition in vivo at 20 mg/kg (Rhesus monkey [2]): 15%
Activity (Mus musculus [3]): Active
EC50 [4]: 93 nM

Structure (SMILES): Cc1cc(OCCCS(C)(=O)=O)c(F)c(C)c1-c1cccc([C@@H]2COc3cc4c(cc3O2)OC[C@H]4CC(=O)O)c1
Emax [5]: 83%
EC50 [25]: 82.4 nM

Structure (SMILES): O=C(O)C[C@@H]1COc2cc3c(cc21)OCC(c1cc(F)cc(Br)c1)O3 (stereo not given in full)
Emax [5]: 38%
EC50 [25]: 105 nM

Structure (SMILES): O=C(O)C[C@@H]1COc2cc3c(cc21)OCC(c1ccc(Br)cc1)O3 (stereo not given in full)
Emax [5]: 38%
EC50 [25]: > 10000 nM

Structure (SMILES): O=C(O)C[C@@H]1COc2cc3c(cc21)OC[C@H](c1cccc(Cl)c1)O3
Emax [5]: 72%
EC50 [25]: 220 nM

More lines, main results first:

Emax [5]: 87%
Vd (Rattus norvegicus): 0.21 L/kg
IC50 [6]: > 50 µM
half-life [8]: 1270 min
Activity [9]: inactive
AUC [10]: 666 µg·h/mL
AUC [12]: 126 µg·h/mL
Activity [13]: inactive
logD [14]: < 3
Cmax [15]: 2670 ng/mL
CL/F [16]: 0.333 mL/min/kg
Vd (Canis familiaris): 0.71 L/kg
Cmax [17]: 22000 ng/mL
Emax [18]: 36.8%
Activity [19]: inactive
CL/F [20]: 0.0833 mL/min/kg
Cmax [21]: 19700 ng/mL
AUC [22]: 35600 ng·h/mL
half-life [23]: 1650 min
half-life [24]: 774 min
EC50 [25]: 34.2 nM
Vd (Cynomolgus monkey): 0.85 L/kg
CL/F [27]: 0.833 mL/min/kg
Structure (SMILES): O=C(O)C[C@@H]1COc2cc3c(cc21)OC[C@@H](c1cccc(Cl)c1)O3
inhibition in vivo at 20 mg/kg (Rhesus monkey [1]): 16.4%
inhibition in vivo at 6 mg/kg (Rhesus monkey [7]): 10.7%
inhibition in vivo at 50 mg/kg (Mus musculus [11]): 11%
inhibition in vivo at 20 mg/kg (Rhesus monkey [2]): 13.2%
inhibition in vivo at 6 mg/kg (Rhesus monkey [26]): 7.71%

Emax [5]: 129%
Vd (Rattus norvegicus): 0.25 L/kg
AUC [10]: 337 µg·h/mL
Cmax [17]: 18900 ng/mL
Emax [18]: 46.8%
CL/F [20]: 0.167 mL/min/kg
half-life [23]: 798 min
EC50 [25]: 16 nM
Structure (SMILES): O=C(O)C[C@@H]1COc2cc3c(cc21)OC[C@@H](c1ccc(Cl)c(Cl)c1)O3
inhibition in vivo at 50 mg/kg (Mus musculus [11]): 4.9%

Emax [5]: 83%
EC50 [25]: 67.5 nM
Structure (SMILES): Cc1cc(OCCCS(C)(=O)=O)cc(C)c1-c1ccc(F)c([C@H]2COc3cc4c(cc3O2)OC[C@H]4CC(=O)O)c1
Activity (Mus musculus [28]): Active

Emax [5]: 91%
EC50 [25]: 19.1 nM
Structure (SMILES): Cc1ccccc1-c1cccc([C@H]2COc3cc4c(cc3O2)OC[C@H]4CC(=O)O)c1
inhibition (INH) (Mus musculus [29]): 9.7%

Emax [5]: 87%
EC50 [25]: 46.5 nM
Structure (SMILES): Cc1cc(OCCCS(C)(=O)=O)cc(C)c1-c1ccc(F)c([C@@H]2COc3cc4c(cc3O2)OC[C@H]4CC(=O)O)c1
Activity (Mus musculus [28]): inactive

Emax [5]: 120%
Vd (Rattus norvegicus): 0.25 L/kg
IC50 [6]: > 50 µM
half-life [8]: 1580 min
Activity [9]: inactive
AUC [10]: 530 µg·h/mL
AUC [12]: 136 µg·h/mL
Activity [13]: inactive
logD [14]: < 3
Cmax [15]: 2270 ng/mL
CL/F [16]: 0.5 mL/min/kg
Vd (Canis familiaris): 0.93 L/kg
Cmax [17]: 17800 ng/mL
Emax [18]: 40%
Activity [19]: inactive
CL/F [20]: 0.117 mL/min/kg
Cmax [21]: 5360 ng/mL
AUC [22]: 30600 ng·h/mL
half-life [23]: 1610 min
half-life [24]: 1080 min
EC50 [4]: 77 nM
EC50 [25]: 13.5 nM
Vd (Cynomolgus monkey): 1.02 L/kg
CL/F [27]: 0.667 mL/min/kg
Structure (SMILES): O=C(O)C[C@@H]1COc2cc3c(cc21)OC[C@@H](c1cccc(Br)c1)O3
inhibition in vivo at 6 mg/kg (Rhesus monkey [7]): 24.4%
inhibition in vivo at 50 mg/kg (Mus musculus [11]): 4.9%
inhibition in vivo at 6 mg/kg (Rhesus monkey [26]): 32.1%

Emax [5]: 99.5%
Vd (Rattus norvegicus): 0.23 L/kg
half-life [8]: 1150 min
AUC [10]: 427 µg·h/mL
AUC [12]: 54.7 µg·h/mL
Cmax [15]: 2580 ng/mL
bioavailability [30]: 100%
Cmax [17]: 19400 ng/mL
Emax [18]: 43.6%
CL/F [20]: 0.167 mL/min/kg
Cmax [21]: 7700 ng/mL
AUC [22]: 47400 ng·h/mL
half-life [23]: 966 min
half-life [24]: 984 min
EC50 [25]: 11.3 nM
Vd (Cynomolgus monkey): 2.38 L/kg
CL/F [27]: 1.67 mL/min/kg
Structure (SMILES): O=C(O)C[C@@H]1COc2cc3c(cc21)OC[C@@H](c1cccc(C(F)(F)F)c1)O3
inhibition in vivo at 50 mg/kg (Mus musculus [11]): 13.3%

Emax [5]: 103%
EC50 [25]: 61.6 nM
Structure (SMILES): Cc1cc(C)c(-c2cccc(C3COc4cc5c(cc4O3)OC[C@H]5CC(=O)O)c2)c(C)c1 (stereo not given in full)
